Literature values, collected in patent US5672605A, “Macrolide immunomodulators” (Abbott Laboratories, priority 1995, dated 1997).

Assays:
[1] = test system: experimental allergic encephalomyelitis model, a model for multiple sclerosis; conditions: in vivo
[2] = rapamycin alone or in combination with picibanil
[3] = test system: adjuvant arthritis model, a model for rheumatoid arthritis; conditions: in vivo
Candida albicans = conditions: particularly against Candida albicans, both in vitro and in vivo

Row | SMILES | binding to FKBP-12, in words (FKBP-12) | inhibition of the formation of IgE-like antibodies (IgE-like antibodies) | immunosuppressant effect in experimental allergic encephalomyelitis model [1] | antitumor activity, in words [2] | immunosuppressant effect in adjuvant arthritis model [3] | antifungal activity, in words (Candida albicans)
1 | C=CC[C@@H]1/C=C(\C)C[C@H](C)C[C@H](OC)[C@H]2O[C@@](O)(C(=O)C(=O)N3CCCC[C@H]3C(=O)O[C@H](/C(C)=C/[C@@H]3CC[C@@H](O)[C@H](OC)C3)[C@H](C)[C@@H](O)CC1=O)[C@H](C)C[C@@H]2OC [FK-506] | binds to FKBP-12 | – | – | – | – | –
2 | CO[C@H]1C[C@@H]2CC[C@@H](C)[C@@](O)(O2)C(=O)C(=O)N2CCCC[C@H]2C(=O)O[C@H]([C@H](C)C[C@@H]2CC[C@@H](O)[C@H](OC)C2)CC(=O)[C@H](C)/C=C(\C)[C@@H](O)[C@@H](OC)C(=O)[C@H](C)C[C@H](C)/C=C/C=C/C=C/1C [rapamycin] | binds to FKBP-12 | effectively inhibit the formation of IgE-like antibodies | effective as an immunosuppressant | antitumor activity | effective as an immunosuppressant | antifungal activity
